# Measurements as given in patent US11242350B2, “Spirocyclic ROR-gamma modulators” (Escalier Biosciences B.V., priority 2018, dated 2022).
# Target: RORγt (Homo sapiens (Human), UniProt P51449)
# Test: Gal4 ligand binding assay (RORγt Gal fusion luciferase reporter assay in HEK293T cells)
# Type: cell-based
# Conditions: RORγt inverse agonists in RORγt Gal fusion assay
# Procedure: The N-terminal DNA binding domains (DBD) of the native RORγ and RORγt receptors have been substituted with that of the yeast GAL4-DBD and stably transfected in HEK293T cells that also stably express luciferase under the regulation by upstream activation sequence of yeast Gal4. These cells constitutively express high level RORγ activity due to binding of endogenous co-factors. Both agonist and inverse agonist activity can be detected. The assay was performed according to kit manufacturer's instructions as follows. 10 mM compound stocks were diluted serially 1:3 with DMSO and further diluted with provided media to generate 10 titration points from 60 μM to 3 nM. These treatment conditions were added to the plates as 2× media in 100 μL volume. Each plate includes a positive control with 10 titration points as well as 6 negative control wells with vehicle only, with final DMSO concentration of 0.2%. RORγ reporter cells were rapidly thawed and added to the plates in 100 μL volume. The plates were incubated for 24 h in a 37° C. humidified 5% CO2 incubator. Media was removed before the addition of room temperature luciferous detection substrate. After 5 minute incubation, relative light units (RLUs) were quantified using a plate reading luminometer. Data was normalized to […] with only 0.2%0DMSO. Before establishing internal controls, ursolic acid was used as control.
# Sequence of RORγt (P51449 269-508): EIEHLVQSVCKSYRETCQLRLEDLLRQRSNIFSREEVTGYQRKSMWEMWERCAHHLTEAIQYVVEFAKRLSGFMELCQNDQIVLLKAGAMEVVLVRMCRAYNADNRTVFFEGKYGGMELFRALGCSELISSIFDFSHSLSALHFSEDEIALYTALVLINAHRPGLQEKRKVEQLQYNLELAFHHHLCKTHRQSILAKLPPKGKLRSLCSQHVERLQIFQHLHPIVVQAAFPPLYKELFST
row,Compound,IC50 [nM]
1,"CCc1cc(C(O)(C(F)(F)F)C(F)(F)F)ccc1-c1c(F)cc(CN2CC3(C2)CN(S(C)(=O)=O)C3)c(F)c1C1CC1 [Example 90, 2-(2′-cyclopropyl-2-ethyl-3′,6′-difluoro-4′-((6-(methylsulfonyl)-2,6-diazaspiro[3.3]heptan-2-yl)methyl)-[1,1′-biphenyl]-4-yl)-1,1,1,3,3,3-hexafluoropropan-2-ol]",< 50
2,"Cc1cc(C(O)(C(F)(F)F)C(F)(F)F)ccc1-c1c(F)cc(CN2CC3(C2)CN(S(C)(=O)=O)C3)c(F)c1C(C)C [Example 84, 2-(3′,6′-difluoro-2′-isopropyl-2-methyl-4′-((6-(methylsulfonyl)-2,6-diazaspiro[3.3]heptan-2-yl)methyl)-[1,1′-biphenyl]-4-yl)-1,1,1,3,3,3-hexafluoropropan-2-ol]",< 50
3,"CCc1cc(CN2CC3(C2)CS(=O)(=O)C3)ccc1-c1ccc(C(O)(C(F)(F)F)C(F)(F)F)cc1C [Example 18, 6-((2-ethyl-4′-(1,1,1,3,3,3-hexafluoro-2-hydroxypropan-2-yl)-2′-methyl-[1,1′-biphenyl]-4-yl)methyl)-2-thia-6-azaspiro[3.3]heptane 2,2-dioxide]",< 50
4,"CCc1cc(CN2CC3(C2)CN(S(C)(=O)=O)C3)ncc1-c1ccc(C(O)(C(F)(F)F)C(F)(F)F)cc1C [Example 64, 2-(4-(4-ethyl-6-((6-(methylsulfonyl)-2,6-diazaspiro[3.3]heptan-2-yl)methyl)pyridin-3-yl)-3-methylphenyl)-1,1,1,3,3,3-hexafluoropropan-2-ol]",< 50
5,"CCc1cc(CN2CCC3(C2)CS(=O)(=O)C3)ccc1-c1ccc(C(O)(C(F)(F)F)C(F)(F)F)cc1 [Example 17, 6-((2-ethyl-4′-(1,1,1,3,3,3-hexafluoro-2-hydroxypropan-2-yl)-[1,1′-biphenyl]-4-yl)methyl)-2-thia-6-azaspiro[3.4]octane 2,2-dioxide]",50 to 250
6,"CN(C)C(=O)c1cc(CN2CC3(C2)CN(S(C)(=O)=O)C3)ccc1-c1ccc(C(O)(C(F)(F)F)C(F)(F)F)cc1 [Example 55, 4′-(1,1,1,3,3,3-hexafluoro-2-hydroxypropan-2-yl)-N,N-dimethyl-4-((6-(methylsulfonyl)-2,6-diazaspiro[3.3]heptan-2-yl)methyl)-[1,1′-biphenyl]-2-carboxamide]",> 250
7,"CS(=O)(=O)N1CC2(CN(Cc3ccc(-c4ccc(C(O)(C(F)(F)F)C(F)(F)F)cc4)c(C(F)(F)F)c3)C2)C1 [Example 46, 1,1,1,3,3,3-hexafluoro-2-(4′-((6-(methylsulfonyl)-2,6-diazaspiro[3.3]heptan-2-yl)methyl)-2′-(trifluoromethyl)-[1,1′-biphenyl]-4-yl)propan-2-ol]",50 to 250
8,"CC(C)c1cc(CN2CC3(C2)CN(S(C)(=O)=O)C3)c(F)cc1-c1ccc(C(O)(C(F)(F)F)C(F)(F)F)cc1Cl [Example 81, 2-(2-chloro-5′-fluoro-2′-isopropyl-4′-((6-(methylsulfonyl)-2,6-diazaspiro[3.3]heptan-2-yl)methyl)-[1,1′-biphenyl]-4-yl)-1,1,1,3,3,3-hexafluoropropan-2-ol]",< 50
9,"CCc1cc(CN2CC3(C2)CS(=O)(=O)C3)ccc1-c1ccc(C(O)(C(F)(F)F)C(F)(F)F)cc1 [Example 26, 6-((2-ethyl-4′-(1,1,1,3,3,3-hexafluoro-2-hydroxypropan-2-yl)-[1,1′-biphenyl]-4-yl)methyl)-2-thia-6-azaspiro[3.3]heptane 2,2-dioxide]",50 to 250
10,"CCc1cc(CN2CC3(CCS(=O)(=O)CC3)C2)ccc1-c1ccc(C(O)(C(F)(F)F)C(F)(F)F)cc1 [Example 3, 2-((2-ethyl-4′-(1,1,1,3,3,3-hexafluoro-2-hydroxypropan-2-yl)-[1,1′-biphenyl]-4-yl)methyl)-7-thia-2-azaspiro[3.5]nonane 7,7-dioxide]",< 50
11,"CCc1cc(CN2CCC3(C2)CS(=O)(=O)C3)ccc1-c1ccc(C(O)(C(F)(F)F)C(F)(F)F)cc1C [Example 16, 6-((2-ethyl-4′-(1,1,1,3,3,3-hexafluoro-2-hydroxypropan-2-yl)-2′-methyl-[1,1′-biphenyl]-4-yl)methyl)-2-thia-6-azaspiro[3.4]octane 2,2-dioxide]",< 50
12,"CC(C)c1c(F)c(CN2CC3(C2)CN(S(C)(=O)=O)C3)cc(F)c1-c1ccc(C(O)(C(F)(F)F)C(F)(F)F)cc1F [Example 86, 1,1,1,3,3,3-hexafluoro-2-(2,3′,6′-trifluoro-2′-isopropyl-4′-((6-(methylsulfonyl)-2,6-diazaspiro[3.3]heptan-2-yl)methyl)-[1,1′-biphenyl]-4-yl)propan-2-ol]",< 50

# More lines, now with the values ahead:
row,IC50 [nM],Compound
1,50 to 250,"Cc1cc(CN2CC3(C2)CN(S(C)(=O)=O)C3)ccc1-c1ccc(C(O)(C(F)(F)F)C(F)(F)F)cc1 [Example 50, 1,1,1,3,3,3-hexafluoro-2-(2′-methyl-4′-((6-(methylsulfonyl)-2,6-diazaspiro[3.3]heptan-2-yl)methyl)-[1,1′-biphenyl]-4-yl)propan-2-ol]"
2,< 50,"CC(C)c1c(-c2ccc(C(O)(C(F)(F)F)C(F)(F)F)cc2)cc(F)c(CN2CC3(C2)CN(S(C)(=O)=O)C3)c1F [Example 8, 2-(3′,5′-difluoro-2′-isopropyl-4′-((6-(methylsulfonyl)-2,6-diazaspiro[3.3]heptan-2-yl)methyl)-[1,1′-biphenyl]-4-yl)-1,1,1,3,3,3-hexafluoropropan-2-ol]"
3,< 50,"CCc1cc(CN2CC3(C2)CN(S(C)(=O)=O)C3)cc(F)c1-c1ccc(C(O)(C(F)(F)F)C(F)(F)F)cc1 [Example 35, 2-(2′-ethyl-6′-fluoro-4′-((6-(methylsulfonyl)-2,6-diazaspiro[3.3]heptan-2-yl)methyl)-[1,1′-biphenyl]-4-yl)-1,1,1,3,3,3-hexafluoropropan-2-ol]"
4,50 to 250,"CS(=O)(=O)N1CC2(CN(Cc3ccc(-c4ccc(C(O)(C(F)(F)F)C(F)(F)F)cc4)cc3O)C2)C1 [Example 61, 4′-(1,1,1,3,3,3-hexafluoro-2-hydroxypropan-2-yl)-4-((6-(methylsulfonyl)-2,6-diazaspiro[3.3]heptan-2-yl)methyl)-[1,1′-biphenyl]-3-ol]"
5,50 to 250,"CCc1cc(CN2CC3(C2)CN(S(C)(=O)=O)C3)cnc1-c1ccc(C(O)(C(F)(F)F)C(F)(F)F)cc1 [Example 52, 2-(4-(3-ethyl-5-((6-(methylsulfonyl)-2,6-diazaspiro[3.3]heptan-2-yl)methyl)pyridin-2-yl)phenyl)-1,1,1,3,3,3-hexafluoropropan-2-ol]"
6,< 50,"CC(C)c1cc(CN2CC3(C2)CN(S(C)(=O)=O)C3)cc(F)c1-c1ccc(C(O)(C(F)(F)F)C(F)(F)F)cc1 [Example 15, 1,1,1,3,3,3-hexafluoro-2-(2′-fluoro-6′-isopropyl-4′-((6-(methylsulfonyl)-2,6-diazaspiro[3.3]heptan-2-yl)methyl)-[1,1′-biphenyl]-4-yl)propan-2-ol]"
7,< 50,"CCc1cc(C(O)(C(F)(F)F)C(F)(F)F)ccc1-c1ccc(CN2CC3(C2)CN(S(C)(=O)=O)C3)cc1C [Example 76, 2-(2-ethyl-2′-methyl-4′-((6-(methylsulfonyl)-2,6-diazaspiro[3.3]heptan-2-yl)methyl)-[1,1′-biphenyl]-4-yl)-1,1,1,3,3,3-hexafluoropropan-2-ol]"
8,< 50,"CCc1c(F)c(CN2CC3(C2)CN(S(C)(=O)=O)C3)cc(F)c1-c1ccc(C(O)(C(F)(F)F)C(F)(F)F)cc1 [Example 69, 2-(2′-ethyl-3′,6′-difluoro-4′-((6-(methylsulfonyl)-2,6-diazaspiro[3.3]heptan-2-yl)methyl)-[1,1′-biphenyl]-4-yl)-1,1,1,3,3,3-hexafluoropropan-2-ol]"
